# Test results reported in patent US20240269139A1, “COMPOUNDS FOR TARGETED PROTEIN DEGRADATION OF KINASES” (DANA-FARBER CANCER INSTITUTE, INC., priority 2020, published 2024).
# Where “and” joins values, the source holds several entries; their conditions need not be identical. Identical values can stand only once. Like-named read-outs stand apart in the source and are kept apart here.
# Assays:
# Assay type in all cases: cell-based
# [1] = target: T1, protein kinases (human kinome) (Homo sapiens, UniProt O14976)
# T1 sequence (O14976 1-1311): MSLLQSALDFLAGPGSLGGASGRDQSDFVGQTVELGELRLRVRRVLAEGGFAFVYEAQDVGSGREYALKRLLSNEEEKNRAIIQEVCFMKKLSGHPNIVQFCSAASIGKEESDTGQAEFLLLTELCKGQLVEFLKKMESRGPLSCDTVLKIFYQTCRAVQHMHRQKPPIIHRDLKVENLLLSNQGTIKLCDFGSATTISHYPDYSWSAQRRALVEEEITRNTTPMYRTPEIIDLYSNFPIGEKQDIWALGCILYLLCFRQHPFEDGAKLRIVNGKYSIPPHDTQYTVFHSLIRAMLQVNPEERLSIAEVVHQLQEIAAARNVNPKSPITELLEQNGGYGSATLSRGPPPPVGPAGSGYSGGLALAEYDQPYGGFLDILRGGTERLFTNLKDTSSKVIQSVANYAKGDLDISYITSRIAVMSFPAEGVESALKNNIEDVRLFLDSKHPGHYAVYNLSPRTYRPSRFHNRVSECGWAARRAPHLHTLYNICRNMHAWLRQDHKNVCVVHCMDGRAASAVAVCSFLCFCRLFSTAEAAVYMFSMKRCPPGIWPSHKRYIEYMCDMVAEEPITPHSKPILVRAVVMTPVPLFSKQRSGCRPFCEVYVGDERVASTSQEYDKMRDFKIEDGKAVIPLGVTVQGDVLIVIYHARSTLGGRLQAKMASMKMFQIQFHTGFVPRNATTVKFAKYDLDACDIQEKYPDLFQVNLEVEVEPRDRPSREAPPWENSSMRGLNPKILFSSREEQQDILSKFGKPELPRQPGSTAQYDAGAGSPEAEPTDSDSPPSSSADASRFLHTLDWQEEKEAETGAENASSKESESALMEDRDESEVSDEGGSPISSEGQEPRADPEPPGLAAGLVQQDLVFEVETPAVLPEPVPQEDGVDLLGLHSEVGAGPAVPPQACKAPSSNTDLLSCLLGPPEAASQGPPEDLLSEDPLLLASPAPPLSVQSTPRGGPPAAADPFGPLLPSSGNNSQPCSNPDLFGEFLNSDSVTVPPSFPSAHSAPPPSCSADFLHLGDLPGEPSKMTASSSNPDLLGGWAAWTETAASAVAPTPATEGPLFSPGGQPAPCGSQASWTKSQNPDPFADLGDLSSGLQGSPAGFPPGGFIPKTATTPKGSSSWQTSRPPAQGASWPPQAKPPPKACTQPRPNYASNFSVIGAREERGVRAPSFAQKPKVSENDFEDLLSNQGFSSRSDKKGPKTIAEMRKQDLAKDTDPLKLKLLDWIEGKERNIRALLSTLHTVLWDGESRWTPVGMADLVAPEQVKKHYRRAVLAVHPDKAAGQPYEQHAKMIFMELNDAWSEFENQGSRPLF
# [2] = target: T2, protein kinases (human kinome) (Homo sapiens, UniProt O75385); conditions: for logFC: ULK1 (O75385) protein abundance, degrader vs DMSO, down; for logFC ULK1: ULK1 O75385
# T2 sequence (O75385 1-1050): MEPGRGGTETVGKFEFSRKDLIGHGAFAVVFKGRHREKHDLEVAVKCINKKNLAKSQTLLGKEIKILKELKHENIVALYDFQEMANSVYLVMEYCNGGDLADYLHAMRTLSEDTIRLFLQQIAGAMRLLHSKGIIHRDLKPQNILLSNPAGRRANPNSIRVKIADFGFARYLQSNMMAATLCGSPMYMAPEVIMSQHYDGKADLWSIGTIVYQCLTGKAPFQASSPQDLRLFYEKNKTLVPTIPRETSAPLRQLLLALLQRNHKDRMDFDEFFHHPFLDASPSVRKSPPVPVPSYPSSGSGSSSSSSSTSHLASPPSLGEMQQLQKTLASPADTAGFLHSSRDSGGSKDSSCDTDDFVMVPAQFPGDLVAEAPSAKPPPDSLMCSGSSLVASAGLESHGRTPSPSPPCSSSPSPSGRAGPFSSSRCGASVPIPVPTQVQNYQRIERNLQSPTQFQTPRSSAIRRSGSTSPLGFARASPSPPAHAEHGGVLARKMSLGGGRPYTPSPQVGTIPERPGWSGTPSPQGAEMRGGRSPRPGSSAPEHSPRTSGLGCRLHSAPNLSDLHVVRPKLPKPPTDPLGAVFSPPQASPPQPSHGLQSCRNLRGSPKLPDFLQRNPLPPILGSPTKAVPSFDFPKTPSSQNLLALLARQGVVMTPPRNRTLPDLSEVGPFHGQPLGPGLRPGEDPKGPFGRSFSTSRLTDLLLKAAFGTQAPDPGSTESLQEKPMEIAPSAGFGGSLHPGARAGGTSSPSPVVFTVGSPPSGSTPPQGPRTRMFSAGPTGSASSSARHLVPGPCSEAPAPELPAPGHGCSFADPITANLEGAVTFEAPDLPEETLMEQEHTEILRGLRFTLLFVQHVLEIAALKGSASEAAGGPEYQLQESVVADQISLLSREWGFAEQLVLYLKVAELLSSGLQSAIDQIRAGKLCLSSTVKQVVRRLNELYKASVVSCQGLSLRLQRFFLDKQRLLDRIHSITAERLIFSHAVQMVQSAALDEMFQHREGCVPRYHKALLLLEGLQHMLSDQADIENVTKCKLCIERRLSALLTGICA
# [3] = target: protein kinases (human kinome) (Homo sapiens, UniProt P16591); conditions: for logFC of FER (P16591-1): down; for logFC of FER: FER P16591-1
# Chain of protein kinases (human kinome) (Homo sapiens, UniProt P16591) (P16591 whole entry): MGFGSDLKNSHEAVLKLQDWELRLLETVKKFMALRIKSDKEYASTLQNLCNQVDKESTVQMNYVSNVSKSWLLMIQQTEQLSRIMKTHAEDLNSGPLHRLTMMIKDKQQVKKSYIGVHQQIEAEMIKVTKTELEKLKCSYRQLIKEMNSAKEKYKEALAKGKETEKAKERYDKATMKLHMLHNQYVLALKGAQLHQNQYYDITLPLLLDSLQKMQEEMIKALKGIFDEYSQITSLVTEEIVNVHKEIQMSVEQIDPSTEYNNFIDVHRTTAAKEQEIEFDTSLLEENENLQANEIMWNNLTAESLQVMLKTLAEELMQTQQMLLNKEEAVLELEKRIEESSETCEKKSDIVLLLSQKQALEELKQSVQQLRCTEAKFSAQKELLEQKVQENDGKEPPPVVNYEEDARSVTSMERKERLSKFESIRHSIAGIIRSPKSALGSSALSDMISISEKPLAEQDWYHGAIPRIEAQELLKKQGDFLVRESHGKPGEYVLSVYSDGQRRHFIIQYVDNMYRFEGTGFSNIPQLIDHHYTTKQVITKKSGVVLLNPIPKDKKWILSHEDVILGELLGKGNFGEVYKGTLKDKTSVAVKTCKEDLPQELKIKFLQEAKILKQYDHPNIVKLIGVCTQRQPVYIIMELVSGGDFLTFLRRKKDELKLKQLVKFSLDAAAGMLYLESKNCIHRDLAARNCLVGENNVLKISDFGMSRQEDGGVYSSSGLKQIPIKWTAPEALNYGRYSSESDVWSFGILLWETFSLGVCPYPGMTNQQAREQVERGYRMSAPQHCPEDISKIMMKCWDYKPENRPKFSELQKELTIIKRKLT
compound,measurement,setting,value
CC(C)S(=O)(=O)c1ccccc1Nc1nc(Nc2ccc(N3CCN(CCOCCNC(=O)CNc4cccc5c4C(=O)N(C4CCC(=O)NC4=O)C5=O)CC3)cc2)ncc1Cl (centres unmarked) [SK.3.91],logFC of GAK (O14976),"[1]; Experiment wp016, 1 uM, down",−0.3526
same,logFC of GAK (O14976),"[1]; Experiment wp016, down",−0.5011
same,logFC of GAK (O14976),"[1]; Experiment wp105, down",−0.3832
same,logFC GAK,"[1]; GAK (O14976), direction down, experiment wp016",−0.5011
same,logFC GAK,"[1]; GAK (O14976), direction down, experiment wp018, 1 uM",−0.3526
same,logFC GAK,"[1]; GAK (O14976), direction down, experiment wp105",−0.3832
same,logFC GAK,"[1]; GAK (O14976), direction down, experiment wp160, 4 hr",−0.3241
same,logFC GAK,"[1]; GAK (O14976), experiment wp160, 4 hr, down",−0.3241
same,logFC,[2]; 1 hr,−1.472 and −1.466
same,logFC,[2]; 2 hr,−2.779 and −2.583
same,logFC ULK1,[2]; experiment wp103,−1.332
same,logFC ULK1,[2]; experiment wp105,−1.712
same,logFC ULK1,[2]; experiment wp107,−1.162
same,logFC ULK1,"[2]; experiment wp133, 1 hr",−1.472
same,logFC ULK1,"[2]; experiment wp133, 2 hr",−2.779
same,logFC ULK1,"[2]; experiment wp133, 4 hr",−3.572
same,logFC ULK1,"[2]; experiment wp160, 1 hr",−1.466
same,logFC ULK1,"[2]; experiment wp160, 2 hr",−2.583
same,logFC ULK1,"[2]; experiment wp160, 4 hr",−3.085
same,logFC of FER (P16591-1),"[3]; Experiment wp016, 1 uM",−3.321
same,logFC of FER (P16591-1),[3]; Experiment wp016,−2.645
same,logFC of FER (P16591-1),[3]; Experiment wp103,−2.81
same,logFC of FER (P16591-1),[3]; Experiment wp105,−2.857
same,logFC of FER (P16591-1),[3]; Experiment wp107,−2.657
same,logFC of FER (P16591-1),"[3]; Experiment wp133, 1 hr",−1.132
same,logFC of FER (P16591-1),"[3]; Experiment wp133, 2 hr",−2.153
same,logFC of FER (P16591-1),"[3]; Experiment wp133, 4 hr",−2.426
same,logFC of FER (P16591-1),"[3]; Experiment wp160, 1 hr",−0.8534
same,logFC of FER (P16591-1),"[3]; Experiment wp160, 2 hr",−1.88
same,logFC of FER (P16591-1),"[3]; Experiment wp160, 4 hr",−1.987
same,logFC of FER,[3]; experiment wp016,−2.646
same,logFC of FER,"[3]; experiment wp016, 1 uM",−3.321
same,logFC of FER,[3]; experiment wp103,−2.81
same,logFC of FER,[3]; experiment wp105,−2.857
same,logFC of FER,[3]; experiment wp107,−2.657
same,logFC of FER,"[3]; experiment wp133, 1 hr",−1.132
same,logFC of FER,"[3]; experiment wp133, 2 hr",−2.153
same,logFC of FER,"[3]; experiment wp133, 4 hr",−2.426
same,logFC of FER,"[3]; experiment wp160, 1 hr",−0.8534
same,logFC of FER,"[3]; experiment wp160, 2 hr",−1.88
same,logFC of FER,"[3]; experiment wp160, 4 hr",−1.987
Cc1ccc(NC(=O)c2cccc(C(F)(F)F)c2)cc1N1Cc2cnc(Nc3ccc(N4CCN(CCCCC(=O)N[C@H](C(=O)N5C[C@H](O)C[C@H]5C(=O)N[C@@H](C)c5ccc(-c6scnc6C)cc5)C(C)(C)C)CC4)nc3)nc2N(C)C1=O [DB1113],logFC GAK,"[1]; GAK (O14976), experiment wp168, down",−1.029
same,logFC GAK,"[1]; GAK, accession O14976, experiment wp168, direction of change down",−1.029
same,logFC,[2],−0.352
same,logFC ULK1,[2]; experiment wp168,−0.352
same,logFC of FER (P16591-1),[3]; Experiment wp168,−1.118
same,logFC of FER,[3]; experiment wp168,−1.118
